Results on five compounds are retold here after PMC7893915, “Assessing cross-resistance within the pyrethroids in terms of their interactions with key cytochrome P450 enzymes and resistance in vector populations” (Parasites & Vectors, 2021).

Like-named read-outs stand apart in the source and are kept apart here.

Data set [1] relates to Anopheles sinensis. Further details: method as in PMID 24159535. As to conditions: resistance ratios using LC50 values from a susceptible strain; most susceptible to bifenthrin, cyfluthrin and etofenprox, in that order; ref [55]; cited from earlier work.
For data set [2], the system named is CYP6P3. As to conditions: cited from earlier work.
Data set [3] deals with CYP6M2. The note with it: Incubation time 2h; mean ± SD; ref [38], [41]; cited from earlier work.
For data set [4], the system named is CYP9J5. The note with it: read-out: IC50 CYP9J5, inhibition of diethoxyfluorescein metabolism, cited from earlier work.
The target in data set [5] is T1, CYP6Z2 (Anopheles gambiae, UniProt Q7PNB5).
T1 sequence (Q7PNB5 1-492): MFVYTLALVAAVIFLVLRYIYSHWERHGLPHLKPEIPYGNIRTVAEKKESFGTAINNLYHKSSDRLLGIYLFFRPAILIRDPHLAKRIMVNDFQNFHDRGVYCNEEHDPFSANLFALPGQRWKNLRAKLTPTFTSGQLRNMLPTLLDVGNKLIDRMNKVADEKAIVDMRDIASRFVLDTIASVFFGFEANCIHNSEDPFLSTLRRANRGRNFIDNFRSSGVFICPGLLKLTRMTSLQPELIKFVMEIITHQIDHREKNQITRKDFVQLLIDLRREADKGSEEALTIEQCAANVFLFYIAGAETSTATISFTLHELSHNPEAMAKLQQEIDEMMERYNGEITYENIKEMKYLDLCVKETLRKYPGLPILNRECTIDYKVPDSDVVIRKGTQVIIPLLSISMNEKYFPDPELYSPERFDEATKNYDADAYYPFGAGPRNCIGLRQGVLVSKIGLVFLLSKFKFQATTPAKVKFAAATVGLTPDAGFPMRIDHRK
T1 sequence (Q86QH5 1-679 partner): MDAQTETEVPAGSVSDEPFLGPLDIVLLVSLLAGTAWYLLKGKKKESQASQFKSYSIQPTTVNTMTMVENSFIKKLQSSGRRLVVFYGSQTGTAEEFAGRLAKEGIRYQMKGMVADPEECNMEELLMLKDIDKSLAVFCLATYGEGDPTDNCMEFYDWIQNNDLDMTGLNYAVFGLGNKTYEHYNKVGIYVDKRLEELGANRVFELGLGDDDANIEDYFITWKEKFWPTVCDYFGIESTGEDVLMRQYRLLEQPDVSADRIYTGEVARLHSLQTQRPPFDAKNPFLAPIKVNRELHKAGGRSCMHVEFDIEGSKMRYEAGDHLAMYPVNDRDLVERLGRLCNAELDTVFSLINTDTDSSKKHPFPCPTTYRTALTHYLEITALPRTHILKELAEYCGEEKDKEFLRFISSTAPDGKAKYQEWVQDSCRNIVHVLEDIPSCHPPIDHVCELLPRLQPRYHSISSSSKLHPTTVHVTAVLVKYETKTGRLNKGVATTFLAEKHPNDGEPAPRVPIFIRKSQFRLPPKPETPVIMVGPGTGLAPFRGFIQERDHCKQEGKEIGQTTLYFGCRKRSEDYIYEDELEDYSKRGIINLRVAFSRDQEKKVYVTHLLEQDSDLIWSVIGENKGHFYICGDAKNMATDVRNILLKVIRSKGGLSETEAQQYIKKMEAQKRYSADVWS
In words: Inhibition screening of pyrethroids, diethoxyfluorescein, CYP6Z2. The data set is classed as biochemical.

The subject of data set [6] is Anopheles arabiensis. As to conditions: Sudan, WHO Bioassay 1998, cited from earlier work.
Data set [7] concerns Ae. aegypti. Put plainly: WHO adult susceptibility test on field samples, Ae. aegypti. It is filed as in vivo, Aedes aegypti. As to conditions: standard diagnostic doses. From the text: The analyses conducted using data from An. gambiae (s.l.) samples were repeated using data from the An. funestus subgroup, An. arabiensis, An. coluzzii, An. funestus and An. gambiae samples (Additional file 2). The same approach was also used for susceptibility test data from Aedes albopictus and Ae. aegypti to investigate whether the same relationships could be detected in these vectors of arboviruses, as detailed in Additional file 3.
Additional File 3: Cross-resistance to pyrethroids within wild populations of Aedes vectors […]
If structural diversity within the pyrethroids is also associated with divergence in resistance within the Aedes vectors of arboviruses, this would lend weight to the findings for malaria vectors presented in the main manusc ript. Like the Anopheles vectors, target-site mutations and metabolic resistance are thought to be the main resistance mechanisms in Aedes mosquitoes. At least ten mutations in the Aedes aegypti Vgsc gene have been identified and the most widespread mutation, […]
mutations and is also associated with DDT resistance. More recently, the V1016G mutation has been found in Ae. albopictus in Viet Nam and Italy, and both this allele and the F1534C and F1534S […]
expression of cytochrome P450s has also been implicated in pyrethroid resistance within Aedes mosquitoes and there is evidence that metabolic resistance can confer cross -resistance to multiple pyrethroids. For example, over-expression of CYP9J28 is associated with metabolic resistance to […]
target site- and P450-mediated resistance in Ae. aegypti strains found variation in resistance to seven pyrethroids and hypothesised that some patterns of resistance could be linked to structural differences, but also noted that general conclusions are challenging to make without a greater number of compounds with a single modification to compare. No studies of structure activity relationships using a wide range of pyrethroids and P450s from Aedes mosquitoes have been conducted to-date, but data on resistance in wild populations are available. A wider range of pyrethroids are more typically tested by studies of resistance in Aedes vectors, compared to Anopheles vectors, although these studies are also more varied in terms of diagnostic dose, bioass ay method and life cycle stage, making comparisons across studies difficult. Here we selected studies that used a common experimental design and investigated correlations in resistance to pairs of pyrethroids mirroring part of the work on Anopheles vectors presented in the main manuscript.
We identified all instances within a public insecticide resistance database where an Aedes field sample had been subdivided among tests for different pyrethroids. We then identified the most commonly used bioassay type across the new pyrethroid dataset, which was the WHO adult susceptibility test as described for malaria vectors, and the most commonly used diagnostic dose for […]
each compound (Table S2). […]
removed. Paired results were then extracted, and the mean values for the Pearson’s correlation coefficient were calculated for each pyrethroid pair using 1,000 bootstaps in SPSS Statistics v25.
Table S5. Diagnostic doses and data volumes for each pyrethroid.
Pyrethroid Most common dose Number of data points
The number of data points available for each pyrethroid from an Ae. aegypti sample that was used to test at least one other pyrethroid, using standard WHO susceptibility tests and standard diagnostic doses, is given.

Where [8] appears, read: read-out: IC50 CYP6P3, inhibition of diethoxyfluorescein metabolism, footnote b, ref Yunta et al. 2019[10].
Setting [9] is: footnote b, ref Yunta et al. 2019[10].
The mark [10] stands for this setting: ID 200047, F1, larval collection, 9/2007-11/2007, Elmaygoma, ref Seidahmed OME et al. Eastern Mediterranean Health Journal. 2012;18(7):769-76.
The mark [11] stands for this setting: Pair 3 λ-cyhalothrin vs etofenprox, N 21 paired Ae. aegypti samples.
[12] abbreviates: Pair 8 permethrin vs λ-cyhalothrin, N 56 paired Ae. aegypti samples.
[13] abbreviates: Pair 9 deltamethrin vs λ-cyhalothrin, N 67 paired Ae. aegypti samples.
Where [14] appears, read: Pair 1 deltamethrin vs etofenprox, N 29 paired Ae. aegypti samples.
The mark [15] stands for this setting: Pair 6 deltamethrin vs permethrin, N 136 paired Ae. aegypti samples.
[16] abbreviates: footnote a, ref Yunta et al. 2016[8].
Setting [17] is: Pair 4 permethrin vs etofenprox, N 31 paired Ae. aegypti samples.

One may read the IC50 as the concentration that inhibits the measured activity by half. As for `Cc1c(COC(=O)[C@@H]2[C@H](/C=C(\Cl)C(F)(F)F)C2(C)C)cccc1-c1ccccc1` (racemic) [Bifenthrin, bifenthrin], in data set [1], the “susceptibility of larvae, rank in words” value was “most susceptible”. The results for the IC50 in data set [2] (setting [8]), in data set [4] (setting [9]) and in data set [5] were 3.5 µM, 2.5 µM and 20.7 µM, respectively. Further, in data set [3], the “% Insecticide depletion CYP6M2” value is recorded as 38.9 ± 1.6%.
As for `CC1(C)[C@H](C(=O)O[C@H](C#N)c2cccc(Oc3ccccc3)c2)[C@@H]1/C=C(\Cl)C(F)(F)F` (racemic) [λ-Cyhalothrin, λ-cyhalothrin], the concentration for half-maximal inhibition (IC50) was 9.6 µM in data set [2] (setting [8]), 4.2 µM in data set [4] (setting [9]) and 18.6 µM in data set [5]. Further, the mortality in data set [6] (setting [10]) is 98.9. The “% Insecticide depletion CYP6M2” value in data set [3] was 49.4 ± 0.5%. Moreover, the “Mean percent mortality (SE)” value in data set [7] (setting [11]) is on record as 72.40 (4.52) percent; in data set [7] (Pair 7 λ-cyhalothrin vs cyfluthrin, N 25 paired Ae. aegypti samples), 66.90 (5.01) percent; in data set [7] (setting [12]), 84.52 (3.40) percent; in data set [7] (setting [13]) it was 74.16 (3.55) percent.
With `CC1(C)[C@H](C(=O)O[C@H](C#N)c2cccc(Oc3ccccc3)c2)[C@@H]1C=C(Br)Br` [Deltamethrin, deltamethrin], the IC50 in data set [2] (read-out: IC50 CYP6P3, inhibition of diethoxyfluorescein metabolism, footnote a, ref Yunta et al. 2016[8]) is 3.2 µM; in data set [4] (setting [16]), 6.1 µM. Moreover, the mortality in data set [6] (F0, larval collection, 10/2009-11/2009, El Managil, ref Abdalla H et al. Parasites Vectors. 2014;7:213) was 92; in data set [6] (F0, larval collection, 10/2009-11/2009, Rufaa, ref Abdalla H et al. Parasites Vectors. 2014;7:213), 94; in data set [6] (F0, larval collection, 10/2009-11/2009, Wad El Hadad, ref Abdalla H et al. Parasites Vectors. 2014;7:213) it was 94; in data set [6] (F0, larval collection, 10/2010-11/2010, Wad El Hadad, ref Abdalla H et al. Parasites Vectors. 2014;7:213) it was 71; in data set [6] (F0, larval collection, 10/2010-11/2010, Wad Medani, ref Abdalla H et al. Parasites Vectors. 2014;7:213), 80; in data set [6] (setting [10]) it was 99.5. The “Mean percent mortality (SE)” value in data set [7] (setting [14]) is 90.68 (2.80) percent; in data set [7] (setting [15]), 88.10 (1.66) percent; in data set [7] (setting [13]), 85.64 (2.66) percent; in data set [7] (Pair 10 deltamethrin vs cyfluthrin, N 72 paired Ae. aegypti samples) it was 88.43 (1.94) percent.
On to `CCOc1ccc(C(C)(C)COCc2cccc(Oc3ccccc3)c2)cc1` [Etofenprox, etofenprox], for which, in data set [1], the “susceptibility of larvae, rank in words” value is reported as “most susceptible”. The IC50 in data set [2] (setting [8]) is 8.3 µM; in data set [4] (setting [9]), 8 µM; in data set [5], 2.8 µM. In addition, in data set [3], the “% Insecticide depletion CYP6M2” value is recorded as 68.8 ± 1.1%. Also, the “Mean percent mortality (SE)” value in data set [7] (setting [14]) is 21.59 (4.75) percent; in data set [7] (Pair 2 cyfluthrin vs etofenprox, N 22 paired Ae. aegypti samples), 21.14 (5.32) percent; in data set [7] (setting [11]), 16.81 (4.43) percent; in data set [7] (setting [17]) it was 21.09 (4.89) percent.
Take `CC1(C)C(C=C(Cl)Cl)C1C(=O)OCc1cccc(Oc2ccccc2)c1` (centres unmarked) [Permethrin, permethrin]: the “susceptibility of larvae, rank in words” value in data set [1] is “least susceptible”. Besides, the IC50 is 6.8 µM in data set [2] and 6.5 µM in data set [4] (setting [16]). Besides, the mortality in data set [6] (setting [10]) is listed as 96. Further, the “% Insecticide depletion CYP6M2” value in data set [3] is 58.5 ± 2.2%. Besides, the “Mean percent mortality (SE)” value in data set [7] (setting [17]) was 63.39 (5.36) percent; in data set [7] (Pair 5 permethrin vs cyfluthrin, N 79 paired Ae. aegypti samples), 59.01 (3.18) percent; in data set [7] (setting [15]), 61.44 (2.40) percent; in data set [7] (setting [12]), 70.10 (3.99) percent.
